Test results: PubChem BioAssay AID1963837 (Molecular Pharmacology Branch, DTP, NCI, 2024)

Test system: 843126-344-R-J1-PDC complex spheroid viability
Assay: Anticancer human tumor 843126-344-R-J1-PDC patient-derived melanoma cell line growth inhibition [POLQ]
Details: second compound 3.16 µM; first compound 0.1 µM; active compounds read low
Method in brief: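 Three-cell-type spheroids modelling solid tumor plus stroma served as the readout system; POL inhibitors were tested individually and in combination, concentration ranges set by clinical Cmax where known.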
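Also: spheroids exposed to drugs for seven days before readout.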

SMILES	viability, T/C
CCc1cc2c(N3CCc4c(cc(Cn5ccnc5)cc4-c4cn(C)nc4C(F)(F)F)C3=O)cc(C)nc2c(OC)n1 + Nc1ccc(C#CCN(C(=O)Cc2ncc(C(F)(F)F)cc2C(F)(F)F)c2ccc(F)cc2)nn1	85.9%
COc1cc2cc(C(=O)CCC(=O)O)sc2cc1OC + Nc1ccc(C#CCN(C(=O)Cc2ncc(C(F)(F)F)cc2C(F)(F)F)c2ccc(F)cc2)nn1	83.7%
O=C(Nc1ccc(O)c(NS(=O)(=O)c2ccc(F)cc2)c1)c1ccc(-c2ccccc2)cc1 + Nc1ccc(C#CCN(C(=O)Cc2ncc(C(F)(F)F)cc2C(F)(F)F)c2ccc(F)cc2)nn1	91.4%

Same assay, conditions: second compound 3.16 µM; first compound 0.316 µM; active compounds read low

SMILES	viability, T/C
C#Cc1c(F)ccc2cc(O)cc(-c3ncc4c(N5CC6CCC(C5)N6)nc(OCC56CCCN5CC(F)C6)nc4c3F)c12 (stereo not drawn) + Nc1ccc(C#CCN(C(=O)Cc2ncc(C(F)(F)F)cc2C(F)(F)F)c2ccc(F)cc2)nn1	108%
CC1COCCN1c1cc(C2(O)CC3CCC(C2)O3)c2cnn(-c3ccn[nH]3)c2n1 (stereo not drawn) + Nc1ccc(C#CCN(C(=O)Cc2ncc(C(F)(F)F)cc2C(F)(F)F)c2ccc(F)cc2)nn1	46.6%
CCc1cc2c(N3CCc4c(cc(Cn5ccnc5)cc4-c4cn(C)nc4C(F)(F)F)C3=O)cc(C)nc2c(OC)n1 + Nc1ccc(C#CCN(C(=O)Cc2ncc(C(F)(F)F)cc2C(F)(F)F)c2ccc(F)cc2)nn1	93.4%
COc1cc2cc(C(=O)CCC(=O)O)sc2cc1OC + Nc1ccc(C#CCN(C(=O)Cc2ncc(C(F)(F)F)cc2C(F)(F)F)c2ccc(F)cc2)nn1	89.1%
O=C(Nc1ccc(O)c(NS(=O)(=O)c2ccc(F)cc2)c1)c1ccc(-c2ccccc2)cc1 + Nc1ccc(C#CCN(C(=O)Cc2ncc(C(F)(F)F)cc2C(F)(F)F)c2ccc(F)cc2)nn1	89.5%

Same assay, conditions: second compound 3.16 µM; first compound 1 µM; active compounds read low

SMILES	viability, T/C
C#Cc1c(F)ccc2cc(O)cc(-c3ncc4c(N5CC6CCC(C5)N6)nc(OCC56CCCN5CC(F)C6)nc4c3F)c12 (stereo not drawn) + Nc1ccc(C#CCN(C(=O)Cc2ncc(C(F)(F)F)cc2C(F)(F)F)c2ccc(F)cc2)nn1	94.5%
CC1COCCN1c1cc(C2(O)CC3CCC(C2)O3)c2cnn(-c3ccn[nH]3)c2n1 (stereo not drawn) + Nc1ccc(C#CCN(C(=O)Cc2ncc(C(F)(F)F)cc2C(F)(F)F)c2ccc(F)cc2)nn1	38.6%
CCc1cc2c(N3CCc4c(cc(Cn5ccnc5)cc4-c4cn(C)nc4C(F)(F)F)C3=O)cc(C)nc2c(OC)n1 + Nc1ccc(C#CCN(C(=O)Cc2ncc(C(F)(F)F)cc2C(F)(F)F)c2ccc(F)cc2)nn1	74.8%
COc1cc2cc(C(=O)CCC(=O)O)sc2cc1OC + Nc1ccc(C#CCN(C(=O)Cc2ncc(C(F)(F)F)cc2C(F)(F)F)c2ccc(F)cc2)nn1	86%
O=C(Nc1ccc(O)c(NS(=O)(=O)c2ccc(F)cc2)c1)c1ccc(-c2ccccc2)cc1 + Nc1ccc(C#CCN(C(=O)Cc2ncc(C(F)(F)F)cc2C(F)(F)F)c2ccc(F)cc2)nn1	86.1%

Same assay, conditions: second compound 3.16 µM; first compound 3.16 µM; active compounds read low

SMILES	viability, T/C
C#Cc1c(F)ccc2cc(O)cc(-c3ncc4c(N5CC6CCC(C5)N6)nc(OCC56CCCN5CC(F)C6)nc4c3F)c12 (stereo not drawn) + Nc1ccc(C#CCN(C(=O)Cc2ncc(C(F)(F)F)cc2C(F)(F)F)c2ccc(F)cc2)nn1	97.6%
CC1COCCN1c1cc(C2(O)CC3CCC(C2)O3)c2cnn(-c3ccn[nH]3)c2n1 (stereo not drawn) + Nc1ccc(C#CCN(C(=O)Cc2ncc(C(F)(F)F)cc2C(F)(F)F)c2ccc(F)cc2)nn1	29.1%
CCc1cc2c(N3CCc4c(cc(Cn5ccnc5)cc4-c4cn(C)nc4C(F)(F)F)C3=O)cc(C)nc2c(OC)n1 + Nc1ccc(C#CCN(C(=O)Cc2ncc(C(F)(F)F)cc2C(F)(F)F)c2ccc(F)cc2)nn1	66.2%
COc1cc2cc(C(=O)CCC(=O)O)sc2cc1OC + Nc1ccc(C#CCN(C(=O)Cc2ncc(C(F)(F)F)cc2C(F)(F)F)c2ccc(F)cc2)nn1	94.7%
O=C(Nc1ccc(O)c(NS(=O)(=O)c2ccc(F)cc2)c1)c1ccc(-c2ccccc2)cc1 + Nc1ccc(C#CCN(C(=O)Cc2ncc(C(F)(F)F)cc2C(F)(F)F)c2ccc(F)cc2)nn1	78.8%

Same assay, conditions: second compound 3.16 µM; first compound 10 µM; active compounds read low

SMILES	viability, T/C
C#Cc1c(F)ccc2cc(O)cc(-c3ncc4c(N5CC6CCC(C5)N6)nc(OCC56CCCN5CC(F)C6)nc4c3F)c12 (stereo not drawn) + Nc1ccc(C#CCN(C(=O)Cc2ncc(C(F)(F)F)cc2C(F)(F)F)c2ccc(F)cc2)nn1	82.6%
CC1COCCN1c1cc(C2(O)CC3CCC(C2)O3)c2cnn(-c3ccn[nH]3)c2n1 (stereo not drawn) + Nc1ccc(C#CCN(C(=O)Cc2ncc(C(F)(F)F)cc2C(F)(F)F)c2ccc(F)cc2)nn1	19.6%
CCc1cc2c(N3CCc4c(cc(Cn5ccnc5)cc4-c4cn(C)nc4C(F)(F)F)C3=O)cc(C)nc2c(OC)n1 + Nc1ccc(C#CCN(C(=O)Cc2ncc(C(F)(F)F)cc2C(F)(F)F)c2ccc(F)cc2)nn1	64%
COc1cc2cc(C(=O)CCC(=O)O)sc2cc1OC + Nc1ccc(C#CCN(C(=O)Cc2ncc(C(F)(F)F)cc2C(F)(F)F)c2ccc(F)cc2)nn1	91%
O=C(Nc1ccc(O)c(NS(=O)(=O)c2ccc(F)cc2)c1)c1ccc(-c2ccccc2)cc1 + Nc1ccc(C#CCN(C(=O)Cc2ncc(C(F)(F)F)cc2C(F)(F)F)c2ccc(F)cc2)nn1	67.3%

Same assay, conditions: second compound 10 µM; first compound 0.0316 µM; active compounds read low

SMILES	viability, T/C
C#Cc1c(F)ccc2cc(O)cc(-c3ncc4c(N5CC6CCC(C5)N6)nc(OCC56CCCN5CC(F)C6)nc4c3F)c12 (stereo not drawn) + Nc1ccc(C#CCN(C(=O)Cc2ncc(C(F)(F)F)cc2C(F)(F)F)c2ccc(F)cc2)nn1	95.3%
CC1COCCN1c1cc(C2(O)CC3CCC(C2)O3)c2cnn(-c3ccn[nH]3)c2n1 (stereo not drawn) + Nc1ccc(C#CCN(C(=O)Cc2ncc(C(F)(F)F)cc2C(F)(F)F)c2ccc(F)cc2)nn1	71.5%
CCc1cc2c(N3CCc4c(cc(Cn5ccnc5)cc4-c4cn(C)nc4C(F)(F)F)C3=O)cc(C)nc2c(OC)n1 + Nc1ccc(C#CCN(C(=O)Cc2ncc(C(F)(F)F)cc2C(F)(F)F)c2ccc(F)cc2)nn1	83.3%
COc1cc2cc(C(=O)CCC(=O)O)sc2cc1OC + Nc1ccc(C#CCN(C(=O)Cc2ncc(C(F)(F)F)cc2C(F)(F)F)c2ccc(F)cc2)nn1	77.2%
O=C(Nc1ccc(O)c(NS(=O)(=O)c2ccc(F)cc2)c1)c1ccc(-c2ccccc2)cc1 + Nc1ccc(C#CCN(C(=O)Cc2ncc(C(F)(F)F)cc2C(F)(F)F)c2ccc(F)cc2)nn1	82.3%

Same assay, conditions: second compound 10 µM; first compound 0.1 µM; active compounds read low

SMILES	viability, T/C
C#Cc1c(F)ccc2cc(O)cc(-c3ncc4c(N5CC6CCC(C5)N6)nc(OCC56CCCN5CC(F)C6)nc4c3F)c12 (stereo not drawn) + Nc1ccc(C#CCN(C(=O)Cc2ncc(C(F)(F)F)cc2C(F)(F)F)c2ccc(F)cc2)nn1	83.4%
CC1COCCN1c1cc(C2(O)CC3CCC(C2)O3)c2cnn(-c3ccn[nH]3)c2n1 (stereo not drawn) + Nc1ccc(C#CCN(C(=O)Cc2ncc(C(F)(F)F)cc2C(F)(F)F)c2ccc(F)cc2)nn1	56.7%
CCc1cc2c(N3CCc4c(cc(Cn5ccnc5)cc4-c4cn(C)nc4C(F)(F)F)C3=O)cc(C)nc2c(OC)n1 + Nc1ccc(C#CCN(C(=O)Cc2ncc(C(F)(F)F)cc2C(F)(F)F)c2ccc(F)cc2)nn1	89.6%
COc1cc2cc(C(=O)CCC(=O)O)sc2cc1OC + Nc1ccc(C#CCN(C(=O)Cc2ncc(C(F)(F)F)cc2C(F)(F)F)c2ccc(F)cc2)nn1	84.3%
O=C(Nc1ccc(O)c(NS(=O)(=O)c2ccc(F)cc2)c1)c1ccc(-c2ccccc2)cc1 + Nc1ccc(C#CCN(C(=O)Cc2ncc(C(F)(F)F)cc2C(F)(F)F)c2ccc(F)cc2)nn1	74.1%

Same assay, conditions: second compound 10 µM; first compound 0.316 µM; active compounds read low

SMILES	viability, T/C
C#Cc1c(F)ccc2cc(O)cc(-c3ncc4c(N5CC6CCC(C5)N6)nc(OCC56CCCN5CC(F)C6)nc4c3F)c12 (stereo not drawn) + Nc1ccc(C#CCN(C(=O)Cc2ncc(C(F)(F)F)cc2C(F)(F)F)c2ccc(F)cc2)nn1	86.5%
CC1COCCN1c1cc(C2(O)CC3CCC(C2)O3)c2cnn(-c3ccn[nH]3)c2n1 (stereo not drawn) + Nc1ccc(C#CCN(C(=O)Cc2ncc(C(F)(F)F)cc2C(F)(F)F)c2ccc(F)cc2)nn1	47.8%
CCc1cc2c(N3CCc4c(cc(Cn5ccnc5)cc4-c4cn(C)nc4C(F)(F)F)C3=O)cc(C)nc2c(OC)n1 + Nc1ccc(C#CCN(C(=O)Cc2ncc(C(F)(F)F)cc2C(F)(F)F)c2ccc(F)cc2)nn1	75.8%
COc1cc2cc(C(=O)CCC(=O)O)sc2cc1OC + Nc1ccc(C#CCN(C(=O)Cc2ncc(C(F)(F)F)cc2C(F)(F)F)c2ccc(F)cc2)nn1	92.2%
O=C(Nc1ccc(O)c(NS(=O)(=O)c2ccc(F)cc2)c1)c1ccc(-c2ccccc2)cc1 + Nc1ccc(C#CCN(C(=O)Cc2ncc(C(F)(F)F)cc2C(F)(F)F)c2ccc(F)cc2)nn1	86.9%

Same assay, conditions: second compound 10 µM; first compound 1 µM; active compounds read low

SMILES	viability, T/C
C#Cc1c(F)ccc2cc(O)cc(-c3ncc4c(N5CC6CCC(C5)N6)nc(OCC56CCCN5CC(F)C6)nc4c3F)c12 (stereo not drawn) + Nc1ccc(C#CCN(C(=O)Cc2ncc(C(F)(F)F)cc2C(F)(F)F)c2ccc(F)cc2)nn1	83.6%
CC1COCCN1c1cc(C2(O)CC3CCC(C2)O3)c2cnn(-c3ccn[nH]3)c2n1 (stereo not drawn) + Nc1ccc(C#CCN(C(=O)Cc2ncc(C(F)(F)F)cc2C(F)(F)F)c2ccc(F)cc2)nn1	33%
CCc1cc2c(N3CCc4c(cc(Cn5ccnc5)cc4-c4cn(C)nc4C(F)(F)F)C3=O)cc(C)nc2c(OC)n1 + Nc1ccc(C#CCN(C(=O)Cc2ncc(C(F)(F)F)cc2C(F)(F)F)c2ccc(F)cc2)nn1	81.5%
COc1cc2cc(C(=O)CCC(=O)O)sc2cc1OC + Nc1ccc(C#CCN(C(=O)Cc2ncc(C(F)(F)F)cc2C(F)(F)F)c2ccc(F)cc2)nn1	79.1%
O=C(Nc1ccc(O)c(NS(=O)(=O)c2ccc(F)cc2)c1)c1ccc(-c2ccccc2)cc1 + Nc1ccc(C#CCN(C(=O)Cc2ncc(C(F)(F)F)cc2C(F)(F)F)c2ccc(F)cc2)nn1	72.4%

Same assay, conditions: second compound 10 µM; first compound 3.16 µM; active compounds read low

SMILES	viability, T/C
C#Cc1c(F)ccc2cc(O)cc(-c3ncc4c(N5CC6CCC(C5)N6)nc(OCC56CCCN5CC(F)C6)nc4c3F)c12 (stereo not drawn) + Nc1ccc(C#CCN(C(=O)Cc2ncc(C(F)(F)F)cc2C(F)(F)F)c2ccc(F)cc2)nn1	85.8%
CC1COCCN1c1cc(C2(O)CC3CCC(C2)O3)c2cnn(-c3ccn[nH]3)c2n1 (stereo not drawn) + Nc1ccc(C#CCN(C(=O)Cc2ncc(C(F)(F)F)cc2C(F)(F)F)c2ccc(F)cc2)nn1	26.7%
CCc1cc2c(N3CCc4c(cc(Cn5ccnc5)cc4-c4cn(C)nc4C(F)(F)F)C3=O)cc(C)nc2c(OC)n1 + Nc1ccc(C#CCN(C(=O)Cc2ncc(C(F)(F)F)cc2C(F)(F)F)c2ccc(F)cc2)nn1	73.3%
COc1cc2cc(C(=O)CCC(=O)O)sc2cc1OC + Nc1ccc(C#CCN(C(=O)Cc2ncc(C(F)(F)F)cc2C(F)(F)F)c2ccc(F)cc2)nn1	92.7%
O=C(Nc1ccc(O)c(NS(=O)(=O)c2ccc(F)cc2)c1)c1ccc(-c2ccccc2)cc1 + Nc1ccc(C#CCN(C(=O)Cc2ncc(C(F)(F)F)cc2C(F)(F)F)c2ccc(F)cc2)nn1	80.6%

Same assay, conditions: second compound 10 µM; first compound 10 µM; active compounds read low

SMILES	viability, T/C
C#Cc1c(F)ccc2cc(O)cc(-c3ncc4c(N5CC6CCC(C5)N6)nc(OCC56CCCN5CC(F)C6)nc4c3F)c12 (stereo not drawn) + Nc1ccc(C#CCN(C(=O)Cc2ncc(C(F)(F)F)cc2C(F)(F)F)c2ccc(F)cc2)nn1	79.4%
CC1COCCN1c1cc(C2(O)CC3CCC(C2)O3)c2cnn(-c3ccn[nH]3)c2n1 (stereo not drawn) + Nc1ccc(C#CCN(C(=O)Cc2ncc(C(F)(F)F)cc2C(F)(F)F)c2ccc(F)cc2)nn1	20.1%
CCc1cc2c(N3CCc4c(cc(Cn5ccnc5)cc4-c4cn(C)nc4C(F)(F)F)C3=O)cc(C)nc2c(OC)n1 + Nc1ccc(C#CCN(C(=O)Cc2ncc(C(F)(F)F)cc2C(F)(F)F)c2ccc(F)cc2)nn1	59.4%
COc1cc2cc(C(=O)CCC(=O)O)sc2cc1OC + Nc1ccc(C#CCN(C(=O)Cc2ncc(C(F)(F)F)cc2C(F)(F)F)c2ccc(F)cc2)nn1	94.1%
O=C(Nc1ccc(O)c(NS(=O)(=O)c2ccc(F)cc2)c1)c1ccc(-c2ccccc2)cc1 + Nc1ccc(C#CCN(C(=O)Cc2ncc(C(F)(F)F)cc2C(F)(F)F)c2ccc(F)cc2)nn1	55.4%
